# Measurements as given in US20010029264A1, “Novel methods and compositions for delivery of taxanes” (priority 1998, published 2001).
# Read-outs that look alike come from different tables or passages of the source.
# Legend:
# [1] = system: IP implanted D16 melanoma; conditions: cited from earlier work
# [2] = system: human X-1 mammary tumor xenograft; conditions: cited from earlier work
# [3] = Oral feasibility PK in dogs (paclitaxel capsules, plasma HPLC); type: in vivo; conditions: for Cmax / Tmax: dog, plasma; for Tmax: read-out: tmax (time of maximum concentration observed)
# Experimental: The formulation was as follows: […]
# and was hand filled into single 0 hard gelatin capsules to a dose of approximately 34 mg/capsule.
# Capsules were inserted into the esophagus and followed with a brief squirt of water and the animals held until swallowing was observed.
# [4] = Solubilization of paclitaxel in the carrier and appearance of the undiluted formulation; type: physicochemical
# Experimental: 4.040 g of Vitamin E-TPGS (Eastman Chemical Co., Kingsport, Tenn.) was chipped in and weighed into a 20 ml scintillation vial. 0.514 g of dimethylisosorbide (“DMI”; ARLASOLVE® DMI, ICI Surfactants; Wilmington, Del.) was added to the vial followed by heating to melt the Vitamin E-TPGS/DMI mixture. […] The solution began to clarify and dissolution progressed.
# Each formulation was prepared in a 20 ml scintillation vial. The vial was initially tared. CREMOPHOR® EL/citric acid blend (10 g CREMOPHOR® EL, 0.020 g citric acid) was weighed into each of eight (8) tared vials. The weight was recorded. Each vial was subsequently tared and the appropriate weight of dimethylisosorbide (DMI) was added. An additional five (5) vials were also prepared without containing the CREMOPHOR® EL/citric acid blend. […] All vials were individually tared and the appropriate weight of Vitamin E-TPGS was added. At this point, all vials were placed in a 40° C. incubator to liquefy the Vitamin E-TPGS within each sample. After the solutions had liquefied, two samples were removed at a time and placed on a stir/hotplate. One-half inch egg shaped stir bars were added to each scintillation vial.
# Large clumps were broken apart easily with a stainless steel spatula. […] This same procedure was repeated for each of the samples.
# 1.016 g of ethyl alcohol was transferred to a 20 ml scintillation vial containing a stir bar. […]
# [5] = male beagle FJF-8, oral, 3 capsules Vitamin E TPGS/DMI formulation, 7.66 mg/kg
# [6] = male beagle IOF-8, oral, 3 capsules Vitamin E TPGS/DMI formulation, 6.88 mg/kg
compound,measurement,setting,value
CC(=O)O[C@H]1C(=O)[C@@]2(C)[C@H]([C@H](OC(=O)c3ccccc3)[C@]3(O)C[C@H](OC(=O)[C@H](O)[C@@H](NC(=O)c4ccccc4)c4ccccc4)C(C)=C1C3(C)C)[C@]1(OC(C)=O)CO[C@@H]1C[C@@H]2O [paclitaxel],cytotoxic activity,[1],good cytotoxic activity
same,cytotoxic activity,[2],good cytotoxic activity
same,Cmax,[3]; [5],108 ng/mL
same,Tmax,[3]; [5],1 h
same,Cmax,[3]; [6],92 ng/mL
same,Tmax,[3]; [6],0.5 h
same,tlast (time of last nonzero concentration observed),[3]; [5],8 h
same,tlast (time of last nonzero concentration observed),[3]; [6],6 h
same,tlast (time of last nonzero concentration observed),"[3]; male beagle OEF-8, oral, 1 capsule Vitamin E TPGS/DMI formulation, 3.27 mg/kg",8 h
same,tlast (time of last nonzero concentration observed),"[3]; male beagle OLF-8, oral, 3 capsules Vitamin E TPGS/DMI formulation, 11.14 mg/kg",8 h
same,tlast (time of last nonzero concentration observed),"[3]; male beagle PXF-8, oral, 1 capsule Vitamin E TPGS/DMI formulation, 3.23 mg/kg",12 h
same,Cmax,"[3]; male, beagle, po, 3.23 mg/kg",17 ng/mL
same,Tmax,"[3]; male, beagle, po, 3.23 mg/kg",1 h
same,Cmax,"[3]; male, beagle, po, 3.27 mg/kg",97 ng/mL
same,Tmax,"[3]; male, beagle, po, 3.27 mg/kg",1 h
same,Cmax,"[3]; male, beagle, po, 11.14 mg/kg",63 ng/mL
same,Tmax,"[3]; male, beagle, po, 11.14 mg/kg",1 h
same,detectable plasma levels of intact drug following dosing,"[3]; six male beagles, oral capsules, 3 to 11 mg/kg, plasma to 48 hours postdose",Five of the six animals had detectable levels of intact drug
same,dissolution of paclitaxel in Methoxy PEG 550 alone,[4]; 0.050 g in 0.450 g (Table 3),eventually dissolved
same,dissolution of paclitaxel in Methoxy PEG 350 alone,[4]; 0.050 g in 0.450 g and 0.100 g in 0.900 g (Table 3),quickly dissolved
